Assay results published in patent US20240376124A1, “Macrocyclic Kinase Inhibitors” (Incyte Corporation, priority 2023, published 2024).
“And” between values parts separate entries of the source, which are not always exact repeats. Identical values can stand only once.

What was measured:
[1] = from [2H]C([2H])([2H])n1c(=O)n([C@H]2CC[C@@](CC=C)(NC(=O)[C@H]3C[C@H]3F)CC2)c2c3c(-c4ccc(OCCC=C)cc4)cn(S(=O)(=O)c4ccccc4)c3ncc21, rcm bond, Grubbs catalyst 2nd generation, dichloromethane, 19.0 mM, 40.0 °C
[2] = target: T1, pseudo-kinase domain (JH2, amino-acids 536-812) of human Wild Type JAK2 (Homo sapiens, UniProt O60674, F794H/W659A/W777A); assay: JAK2 LanthaScreen JH2-WT Binding Assay; details: 50 nM tracer, read-out: JH2BIND_WT IC50
T1 construct: pseudo-kinase domain (JH2, amino-acids 536-812 with 3 surface mutations W659A, W777A, F794H); His (C); purchased BPS Bioscience 79463; host or cells: baculovirus expression system
Procedure: Example B. JAK2 LanthaScreen JH2-WT Binding Assay
(§1) JAK2 JH2-WT binding assay utilizes pseudo-kinase domain (JH2, amino-acids 536-812 with 3 surface mutations W659A, W777A, F794H) of human Wild Type JAK2 expressed as C-terminal His-Avi-tagged, biotinylated protein in a baculovirus expression system (BPS Bioscience, Catalog #79463). The assay was conducted in black 384-well polystyrene plates in a final reaction volume of 20 μL. JAK2 JH2-WT (0.145 nM) was incubated with compounds (100 nL serially diluted in DMSO) in the presence of 50 nM Fluorescent JAK2-JH2 Tracer (MedChem Express Catalog #HY-102055) and 0.25 nM Streptavidin-Tb cryptate (Cisbio Part #610SATLB) in assay buffer (50 mM Tris, pH=7.5, 10 mM MgCl2, 0.01% Brij-35, 0.1% BSA, 1 mM EGTA, 5% Glycerol and 5 mM DTT). Non-specific binding was accessed in the presence of 2 mM ATP. After incubation for 1 hour at 25° C., LanthaScreen signals were read on a PHERAstar FS plate reader (BMG LABTECH). Data was analyzed with IDBS XLfit and GraphPad Prism 5.0 software using a four parameter dose response curve to determine IC50 for each compound.

[3] = target: T2, catalytic domain (JH1, amino acids 826-1132) of human JAK2 (Homo sapiens, UniProt O60674); assay: JAK2 LanthaScreen JH1 binding assay; details: JAK2 JH1, 50 nM tracer; read-out: JH1BIND IC50
T2 construct: catalytic domain (JH1, amino acids 826-1132) of human JAK2; FLAG (N); purchased Carna Biosciences 08-445-20N; host or cells: baculovirus expression system
Procedure: Example A. JAK2 LanthaScreen […] Binding Assay
JAK2 JH1 binding assay utilizes catalytic domain (JH1, amino acids 826-1132) of human JAK2 expressed as N-terminal FLAG-tagged, biotinylated protein in a baculovirus expression system (Carna Biosciences, Product #08-445-20N). The assay was conducted in black 384-well polystyrene plates in a final reaction volume of 20 μL. JAK2 JH1 (1.5 nM) was incubated with compounds (100 nL serially diluted in DMSO) in the presence of 50 nM fluorescent JAK2-JH1 tracer and 0.5 nM Streptavidin-Tb cryptate (Cisbio Part #610SATLB) in assay buffer (50 mM Tris, pH=7.5, 10 mM MgCl2, 0.01% Brij-35, 0.1% BSA, 1 mM EGTA, […] and 5 mM DTT). Non-specific binding was accessed in the presence of 2 mM ATP. After incubation for 2 hours at 25° C., LanthaScreen signals were read on a PHERAstar FS plate reader (BMG LABTECH).
Data was analyzed with IDBS XLfit and GraphPad Prism 5.0 software using a four parameter dose response curve to determine IC50 for each compound.

[4] = target: T3, catalytic domain (JH1, amino acids 808-1132) of human JAK2 (Homo sapiens, UniProt O60674); assay: JAK2 HTRF Enzyme Activity Assay; type: biochemical; details: ATP 30 μM; read-out: ENZ 30UMATP IC50
T3 construct: catalytic domain (JH1, amino acids 808-1132) of human JAK2; His (N); purchased BPS Bioscience 40450; host or cells: baculovirus expression system
Procedure: Example D. JAK2 HTRF Enzyme Activity Assay
JAK2 enzyme activity assays utilize catalytic domain (JH1, amino acids 808-1132) of human JAK2 expressed as N-terminal His-tagged protein in a baculovirus expression system (BPS Bioscience, Catalog #40450). The assays was conducted in black 384-well polystyrene plates in a final reaction volume of 20 μL. JAK2 (0.015 nM) was incubated with compounds (100 nL serially diluted in DMSO) in the presence of ATP (30 μM or 1 mM) and 500 nM Biotin-labeled EQEDEPEGDYFEWLE (SEQ ID NO.: 1) peptide (BioSource International, custom synthesis) in assay buffer (50 mM Tris, pH=7.5, 10 mM MgCl2, 0.01% Brij-35, 0.1% BSA, 1 mM EGTA, 5% Glycerol and 5 mM DTT) for 60 minutes at 25° C. The reactions were stopped by the addition of 10 μL of detection buffer (50 mM Tris, pH 7.8, 0.5 mg/mL BSA, 150 mM NaCl), supplemented with EDTA, LANCE Eu-W1024 anti-phosphotyrosine (PY20), (PerkinElmer, Catalog #AD0067) and Streptavidin SureLight APC (PerkinElmer Catalog #CR130-100), for a final concentration of 15 mM, 1.5 nM and 75 nM, respectively. HTRF signals were read after 30 minutes incubation at room temperature on a PHERAstar FS plate reader (BMG LABTECH). Data was analyzed with IDBS XLfit and GraphPad Prism 5.0 software using a four parameter dose response curve to determine IC50 for each compound. The compounds of the disclosure were tested in one or more of the assays described in Examples A-D, and the resulting data are shown in Table A.

[5] = target: T4, pseudo-kinase domain (JH2, amino-acids 536-812) of human V617F mutant JAK2 (Homo sapiens, UniProt O60674, F794H/V617F/W659A/W777A); assay: JAK2 LanthaScreen JH2-V617F Binding Assay; details: 50 nM tracer, read-out: JH2BINDING—V617F IC50
T4 construct: pseudo-kinase domain (JH2, amino-acids 536-812 with 3 surface mutations W659A, W777A, F794H); His (C); purchased BPS Bioscience 79498; host or cells: baculovirus expression system
Procedure: Example C. JAK2 LanthaScreen JH2-V617F Binding Assay
as §1, with “JH2-V617F” for “JH2-WT”, “V617F mutant” for “Wild Type”, “#79498).” for “#79463).”, “JH2-V617F (0.26” for “JH2-WT (0.145”

T4 sequence (O60674 536-812 V617F/W659A/W777A/F794H): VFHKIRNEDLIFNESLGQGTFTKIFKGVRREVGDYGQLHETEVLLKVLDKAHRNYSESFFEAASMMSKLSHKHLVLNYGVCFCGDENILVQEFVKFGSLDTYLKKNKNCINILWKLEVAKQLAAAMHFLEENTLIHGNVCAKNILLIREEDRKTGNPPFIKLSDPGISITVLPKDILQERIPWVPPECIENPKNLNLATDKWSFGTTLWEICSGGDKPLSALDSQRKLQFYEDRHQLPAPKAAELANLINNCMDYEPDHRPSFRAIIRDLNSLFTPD
T1 sequence (O60674 536-812 W659A/W777A/F794H): as the sequence (O60674 536-812 V617F/W659A/W777A/F794H) above, with F82V counted along it
T3 sequence (O60674 808-1132): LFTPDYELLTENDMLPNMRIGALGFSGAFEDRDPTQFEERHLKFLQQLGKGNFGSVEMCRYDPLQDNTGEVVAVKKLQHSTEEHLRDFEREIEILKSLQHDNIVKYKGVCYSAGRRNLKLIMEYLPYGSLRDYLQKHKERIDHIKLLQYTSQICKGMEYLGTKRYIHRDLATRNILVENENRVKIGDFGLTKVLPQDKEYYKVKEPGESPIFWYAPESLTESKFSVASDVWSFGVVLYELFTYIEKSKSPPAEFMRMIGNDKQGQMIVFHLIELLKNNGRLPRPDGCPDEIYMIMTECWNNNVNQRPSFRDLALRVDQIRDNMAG
T2 sequence (O60674 826-1132): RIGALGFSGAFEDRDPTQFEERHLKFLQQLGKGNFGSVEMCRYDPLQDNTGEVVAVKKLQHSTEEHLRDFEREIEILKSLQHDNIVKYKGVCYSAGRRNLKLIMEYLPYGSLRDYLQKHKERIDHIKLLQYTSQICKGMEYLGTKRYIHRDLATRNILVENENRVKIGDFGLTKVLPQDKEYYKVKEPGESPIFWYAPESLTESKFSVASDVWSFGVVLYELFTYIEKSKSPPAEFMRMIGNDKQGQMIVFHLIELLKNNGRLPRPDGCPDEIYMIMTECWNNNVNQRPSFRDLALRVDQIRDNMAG

Row | Molecule | ring closure, yield of all isomers [1] | IC50 [2] | IC50 [3] | IC50 [4] | IC50 [5]
1 | [2H]C([2H])([2H])n1c(=O)n2c3c4c(cn(S(=O)(=O)c5ccccc5)c4ncc31)-c1ccc(cc1)OCCC=CC[C@]1(NC(=O)[C@H]3C[C@H]3F)CC[C@@H]2CC1 | 98% | – | – | – | –
2 | [2H]C([2H])([2H])n1c(=O)n2c3c4c(c(-c5cnn(CC(F)F)c5)[nH]c4ncc31)-c1ccc(cc1)OCC/C=C/C[C@]1(NC(=O)[C@H]3C[C@H]3F)CC[C@@H]2CC1 [Example 11, (1R,2R)-N-((3^1S,3^4s,E)-2^7-(1-(2,2-difluoroethyl)-1H-pyrazol-4-yl)-2^3-(methyl-d3)-2^2-oxo-2^1,2^2,2^3,2^6-tetrahydro-9-oxa-2(8,1)-imidazo[4,5-d]pyrrolo[2,3-b]pyridina-1(1,4)-benzena-3(1,4)-cyclohexanacyclononaphan-5-en-3^4-yl)-2-fluorocyclopropane-1-carboxamide] | – | ≤ 10 nM | 500 to 1000 nM | > 1000 nM | ≤ 10 nM
3 | [2H]C([2H])([2H])n1c(=O)n2c3c4c(c(-c5cn(CC)nc5F)[nH]c4ncc31)-c1ccc(cc1)OCC/C=C/C[C@]1(NC(=O)[C@H]3C[C@H]3F)CC[C@@H]2CC1 [Example 12, (1R,2R)-N-((3^1S,3^4s,E)-2^7-(1-ethyl-3-fluoro-1H-pyrazol-4-yl)-2^3-(methyl-d3)-2^2-oxo-2^1,2^2,2^3,2^6-tetrahydro-9-oxa-2(8,1)-imidazo[4,5-d]pyrrolo[2,3-b]pyridina-1(1,4)-benzena-3(1,4)-cyclohexanacyclononaphan-5-en-3^4-yl)-2-fluorocyclopropane-1-carboxamide] | – | ≤ 10 nM | 500 to 1000 nM and > 1000 nM | 500 to 1000 nM and > 1000 nM | ≤ 10 nM
4 | [2H]C([2H])([2H])n1c(=O)n2c3c4c(c(-c5cn(C(C)C)nc5F)[nH]c4ncc31)-c1ccc(cc1)OCC/C=C/C[C@]1(NC(=O)[C@H]3C[C@H]3F)CC[C@@H]2CC1 [Example 13, (1R,2R)-2-fluoro-N-((3^1S,3^4s,E)-2^7-(3-fluoro-1-isopropyl-1H-pyrazol-4-yl)-2^3-(methyl-d3)-2^2-oxo-2^1,2^2,2^3,2^6-tetrahydro-9-oxa-2(8,1)-imidazo[4,5-d]pyrrolo[2,3-b]pyridina-1(1,4)-benzena-3(1,4)-cyclohexanacyclononaphan-5-en-3^4-yl)cyclopropane-1-carboxamide] | – | ≤ 10 nM | > 1000 nM | > 1000 nM | ≤ 10 nM
5 | [2H]C([2H])([2H])n1c(=O)n2c3c4c(c(-c5cn(CC6CC6)nc5F)[nH]c4ncc31)-c1ccc(cc1)OCC/C=C/C[C@]1(NC(=O)[C@H]3C[C@H]3F)CC[C@@H]2CC1 [Example 14, (1R,2R)-N-((3^1S,3^4s,E)-2^7-(1-(cyclopropylmethyl)-3-fluoro-1H-pyrazol-4-yl)-2^3-(methyl-d3)-2^2-oxo-2^1,2^2,2^3,2^6-tetrahydro-9-oxa-2(8,1)-imidazo[4,5-d]pyrrolo[2,3-b]pyridina-1(1,4)-benzena-3(1,4)-cyclohexanacyclononaphan-5-en-3^4-yl)-2-fluorocyclopropane-1-carboxamide] | – | ≤ 10 nM | 500 to 1000 nM and > 1000 nM | 500 to 1000 nM and > 1000 nM | ≤ 10 nM
6 | N-((3^1r,3^4s)-2^7-(3-Methoxy-1-methyl-1H-pyrazol-4-yl)-2^3-(methyl-d3)-2^2-oxo-2^1,2^2,2^3,2^6-tetrahydro-8-oxa-2(8,1)-imidazo[4,5-d]pyrrolo[2,3-b]pyridina-1(1,4)-benzena-3(1,4)-cyclohexanacyclooctaphane-3^4-yl)cyclopropanecarboxamide [Example 5] | – | ≤ 10 nM | > 1000 nM | > 1000 nM | ≤ 10 nM
7 | N-((3^1r,3^4s)-2^7-(3-Methoxy-1-methyl-1H-pyrazol-4-yl)-2^3-(methyl-d3)-2^2-oxo-2^1,2^2,2^3,2^6-tetrahydro-9-oxa-2(8,1)-imidazo[4,5-d]pyrrolo[2,3-b]pyridina-1(1,4)-benzena-3(1,4)-cyclohexanacyclononaphane-3^4-yl)cyclopropanecarboxamide [Example 4] | – | ≤ 10 nM | > 1000 nM | > 1000 nM | ≤ 10 nM
